# Assay results published in patent US10214765B2, “Cell-permeable probes for identification and imaging of sialidases” (Academina Sinica, priority 2012, dated 2019).
# Where two headings read alike, the source gives them in different places.
# Test system: oseltamivir-sensitive (WSN^274H) and oseltamivir-resistant (WSN^274Y) H1N1 influenza viruses
# Type: binding, H1N1 influenza virus
smiles,measurement,setting,value
"C#CCCC(=O)NC1C(O)C(F)C(F)(C(=O)O)OC1[C@H](O)[C@H](O)CO (stereo partly drawn) [DFSA-5-yne, 5-(Pent-4-ynamido)-2,3,5-trideoxy-3-fluoro-D-erythro-β-L-manno-non-2-ulopyranosylonic fluoride]",labeling of OS^s and OS^r H1N1 influenza viruses,in the absence of OS,labeled
same,labeling of OS^s and OS^r H1N1 influenza viruses,in the presence of competing OS,only the OS^r virus was detectable
